Experiments:
[1] = tested on: THP-1 cells; assay: Cell count in the THP-1 screening assay; format: cell-based, human; details: 10 µM compound, IFN-γ stimulation, normalized to control
Protocol: (§1) A library of small molecule compounds comprising an E2-RING domain or a RING-RING domain was screen for TRIM8 inhibition in a cell-based assay. 20,000 THP-1 cells (a human myeloid cell line which imitates human monocyte cell inflammatory behavior and responds to IFN-γ stimulation by expressing […] CXCL9, CXCL10 and CXCL11) were incubated with […] of each compound (dissolved in DMSO) for 4 hours, then stimulated with 200 U (units) of human IFN-γ. The effect of the stimulation as measured by changes in accumulation levels of the cytokines CXCL9, CXCL10 and CXCL11 in extracellular fluid was determined by flow cytometer after 12 hours and compared to control (IFN-γ stimulation with no compound).

[2] = target: T1, TRIM8 (Homo sapiens, UniProt Q9BZR9); assay: Cell-based screen for TRIM8 inhibition: CXCL9, CXCL10 and CXCL11 accumulation in IFN-γ-stimulated THP-1 cells; details: for Normalized Average of IP-10/CXCL10 / Normalized Average of MIG/CXCL9 / Normalized Average of I-TAC/CXCL11 / Effect on inflammatory response (CXCL9, CXCL10, CXCL11 after IFN-γ): THP-1 cells; for Normalized Average of IP-10/CXCL10 / Normalized Average of MIG/CXCL9 / Normalized Average of I-TAC/CXCL11: 10 µM compound 4 hours, then 200 U human IFN-γ, 12 hours, flow cytometer; for Normalized Average of IP-10/CXCL10 / Normalized Average of MIG/CXCL9: degree of change from control (<1 inhibition, >1 enhancement), triplicate; for Normalized Average of I-TAC/CXCL11: degree of change from control, high background in read-out; for Effect on inflammatory response (CXCL9, CXCL10, CXCL11 after IFN-γ) / TRIM8 inhibitor or enhancer activity found on testing: summary in words; for TRIM8 inhibitor or enhancer activity found on testing: Example 4
T1 construct: 20,000 THP-1 cells; endogenous in cells; host or cells: THP-1
T1 sequence (Q9BZR9 1-551): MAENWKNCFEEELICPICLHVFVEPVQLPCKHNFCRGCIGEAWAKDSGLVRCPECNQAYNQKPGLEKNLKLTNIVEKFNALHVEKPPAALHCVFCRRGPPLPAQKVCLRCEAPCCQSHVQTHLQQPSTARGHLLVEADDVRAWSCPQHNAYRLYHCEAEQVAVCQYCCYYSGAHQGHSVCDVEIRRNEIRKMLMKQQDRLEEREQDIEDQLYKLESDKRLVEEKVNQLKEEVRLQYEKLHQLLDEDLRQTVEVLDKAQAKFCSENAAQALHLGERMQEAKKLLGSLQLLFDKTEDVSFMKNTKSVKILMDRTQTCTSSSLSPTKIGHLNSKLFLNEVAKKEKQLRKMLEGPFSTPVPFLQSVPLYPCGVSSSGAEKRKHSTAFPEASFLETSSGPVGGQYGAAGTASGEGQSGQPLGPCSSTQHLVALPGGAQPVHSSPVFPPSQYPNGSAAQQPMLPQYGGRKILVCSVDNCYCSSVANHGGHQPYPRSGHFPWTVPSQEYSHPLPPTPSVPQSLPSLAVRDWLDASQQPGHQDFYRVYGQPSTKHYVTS
Protocol: as §1
Each compound is identified by its ChemDiv catalog number.
Values in Table 1 are reported as degree of change from the control state. Values less than 1 indicate inhibition of cytokine response, and values greater than 1 indicate enhancement of cytokine response. Smaller values indicate a higher degree of inhibition. Values closer to zero indicate profound inhibition of cytokine response, and thus significant suppression of inflammatory responses conferred via inhibition of TRIM8 by the tested compounds. CXCL11 values are higher due to a high background in their read-out (relatively high CXCL11 values indicate […]). Standard errors reflect the degree of variation seen in the triplicate tests for each compound.

Compound | Average Normalized Cell Count [1] | Normalized Average of IP-10/CXCL10 [2] | Normalized Average of MIG/CXCL9 [2] | Normalized Average of I-TAC/CXCL11 [2] | Effect on inflammatory response (CXCL9, CXCL10, CXCL11 after IFN-γ) [2] | TRIM8 inhibitor or enhancer activity found on testing [2]
COc1ccc(Sc2ccc(=O)n(-c3ccc(C(=O)NCCCc4ccccc4)cc3)n2)cc1 [Compound 88, 4-{3-[(4-methoxyphenyl)sulfanyl]-6-oxo-1,6-dihydropyridazin-1-yl}-N-(3-phenylpropyl)benzamide] | 0.837 | 0.127 | 0.019 | 0.744 | significant inhibition of inflammatory response | highly potent TRIM8 inhibitor
COc1ccc(N2CCN(C(=O)c3cc4ccc5cccnc5c4[nH]3)CC2)cc1 [Compound 81, 1-(4-methoxyphenyl)-4-{1H-pyrrolo[3,2-h]quinoline-2-carbonyl}piperazine] | 1.070 | 0.334 | 0.138 | 0.617 | significant inhibition of inflammatory response | strong inhibitor of TRIM8
O=C(NCCCc1ccccc1)c1n[nH]c2c1CN(C(=O)c1cc(F)ccc1F)CC2 [Compound 120, 5-(2,5-difluorobenzoyl)-N-(3-phenylpropyl)-1H,4H,5H,6H,7H-pyrazolo[4,3-c]pyridine-3-carboxamide] | 0.960 | 0.468 | 0.188 | 0.426 | significant inhibition of inflammatory response | TRIM8 inhibitor
COc1ccc(-c2n[nH]c3c2C(c2ccccc2)C2=C(CC(C)(C)CC2=O)N3)cc1 (stereo not drawn) [Compound 76, 3-(4-methoxyphenyl)-7,7-dimethyl-4-phenyl-1H,4H,5H,6H,7H,8H,9H-pyrazolo[3,4-b]quinolin-5-one] | 1.196 | 0.352 | 0.085 | <LLOD | significant inhibition of inflammatory response | powerful TRIM8 inhibitor
COc1ccc(CN2C(=O)NC(=O)/C(=C\c3cccc4ccccc34)C2=O)cc1 [Compound 17, (5E)-1-[(4-methoxyphenyl)methyl]-5-[(naphthalen-1-yl)methylidene]-1,3-diazinane-2,4,6-trione] | 1.435 | 3.640 | 2.545 | 4.410 | significant enhancement of inflammatory response | potent TRIM8 enhancer
CCc1cccc2c(C(CC(=O)N3CCN(c4ccc([N+](=O)[O-])cc4)CC3)c3cccc4c3OCO4)c[nH]c12 (stereo not drawn) [Compound 130, 3-(2H-1,3-benzodioxol-4-yl)-3-(7-ethyl-1H-indol-3-yl)-1-[4-(4-nitrophenyl)piperazin-1-yl]propan-1-one] | 1.135 | 0.794 | 7.574 | 0.806 | significant enhancement of inflammatory response | potent TRIM8 enhancer
